The source of these data is patent US20070238184A1, “Amyloid beta protein channel structure and uses thereof in identifying potential drug molecules for neurodegenerative diseases” (The Regents of the University of California, priority 2005, published 2007).

Assay [1] deals with T1, channels formed by the 42-residue AbP1-42 (Homo sapiens, UniProt P05067).
T1 construct: the channels formed by the 42-residue AbP1-42
The experiment in a line: Liposomes reconstituted with AbP1-42 channels, channel block. Format: biochemical. An excerpt: (§1) In certain embodiments binding of test agents can be detected by detecting alterations (e.g., decrease) of ion (e.g., Ca^2+) uptake by a cell, oocytes, or liposome in the presence of the test agent(s)-uptake in to the liposomes. This can readily be detected using for example a radio-isotope (e.g., 45Ca^2+) or a calcium sensitive dye (e.g., arsenazo III (AIII), Fura-2, Fluo-3, Fluo-4, Calcium green, etc.).
(§2) Using liposomes reconstituted with AbP channels in the membrane, one can screen for compounds that block AbP channels.

In assay [2] the target is T2, channels formed by the 40 residue AbP1-40 (Homo sapiens, UniProt P05067).
T2 construct: the channels formed by the 40 residue AbP1-40
T2 sequence (P05067 672-711 limits assumed): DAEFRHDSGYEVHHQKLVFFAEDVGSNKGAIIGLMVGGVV
The experiment in a line: 45Ca2+ uptake into liposomes reconstituted with AbP1-40 channels. Format: biochemical.
Description: as §1, §2

Assay [3] deals with AbP ion channels. Kind of assay: AbP-induced toxicity in cultured cells. It counts as cell-based. The settings on record: blocking Ca2+ influx through AbP ion channels.
In assay [4] the test system is AbP ion channels. Kind of assay: Ca2+ influx through AbP ion channels incorporated into unilaminar liposomes. It counts as biochemical, human. An excerpt:
Consistent with these discoveries, we have shown that AbP ion channels mediate Ca^2+ influx when incorporated into unilaminar liposomes, and the Ca^2+ influx was blocked by Zn^2+ and an anti-AbP antibody.

Assay [5] in a line: IV curve conductance across lipid bilayer suspended over silicon chip nanopore. The settings on record: 0.2 mg/ml, 135 mM KCl, bilayer only 0.025 nS. As to the method:
In order to study the sealing effect of the bilayer over the nanopores in the chip, lipid vesicles were deposited over to chips. After 30 minutes for a bilayer to form from vesicular fusion, the excess unadsorbed lipids and vesicles were rinsed away from the surface. Bulk electrical conductance across the supported nanopore chip and the overlying adsorbed lipid bilayer was measured using a drop of 135 mM KCl solution on top of the chip in which the AFM tip holder assembly was submerged and 135 mM KCl under the nitride membrane. The IV curve measured was near flat and indicates a conductance across the bilayer of 0.025 nS. To check for the possibility of using the nanopore chip to measure ion channel conductance, Gramicidin (a known ion channel forming peptide) was added to the solution at a concentration of 0.2 mg/ml. The effect of Gramicidin on conductance is shown in FIG. 18, while applying a 1V bias to the bottom electrode under the silicon nitride membrane.
For all samples, nano pore membranes were mounted on plastic liquid cells to exchange fluid above or below the membrane. IV curves were obtained in 135 mM KCl solution. Current was measured using the conductive AFM setup with the cantilevered tip holder as an electrode on the top and a reference electrode under the pore-chip (FIG. 20). In absence of an insulating coat, when buffer was present on both sides of the chip, current is measured through the complete tip holder clip. To image current only through the AFM tip apex, conductance was measured with 135 mM KCl solution only under the pore chip and a flow of humid air was maintained over the top surface. This set up also ensured that, by allowing only a local water meniscus between tip and the sample, only the local conductance through each pore was measured.
AFM was also used to image pores after deposition of lipid vesicles (DOPC) prepared by previously described method (Lin et al. (1999) Biochemistry, 38: 11189-11196). Briefly, vesicles were formed by drying 1 mg of DOPC lipid in a glass tube, kept in a desiccator overnight, and rehydrated in buffer with occasional sonication. For vesicle deposition a droplet (50 micro liter, 1 mg/ml) of vesicles was placed on the pore chip, allowed to adsorb for 30 minutes, and rinsed with buffer. After bilayer deposition and before IV measurements, ionic strength was brought back to 135 mM KCl both on top as well as below the pore chip to keep the bilayer hydrated properly, and current was measured through the tip holder. Once a proper seal was achieved by the bilayer, Gramicidin, an ion channel forming peptide (dissolved in milliQ water with 135 mM KCl), was added to the buffer solution, and the current was measured as a function of time while gramicidin interacted with the bilayer.

The nature of assay [6]: Single-channel current recording in planar phospholipid bilayer membranes. The settings on record: voltage clamp, peptide added to one side, pH 7.4. The method, then: Planar phospholipid bilayer membranes were formed as described by Mirzabekov et al. (1999) Meth. Enzymol. 294: 61-74. A bubble of lipid dissolved in heptane was placed at the end of a small (100-300 μm) Teflon tube. Silver/silver chloride electrodes connected the aqueous components bounding the membrane to a voltage clamp. Ion-channel currents through the membrane were recorded by an Axopatch amplifier (Axon Instruments, Sunnyvale, Calif.). Data were filtered at 1 kHz and stored on VHS tape. Membrane capacitance and resistance were monitored continuously to ensure the formation and stability of reproducible membranes and the proper membrane thickness. […] Peptide samples were introduced by perfusing the aqueous solution bounding one side of the membrane.

No end group written: not given here.

T1 sequence (P05067 672-713 limits assumed): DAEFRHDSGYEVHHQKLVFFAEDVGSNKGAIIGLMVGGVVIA

Take `NC(CO)(CO)CO` [Tris]: the “block of AbP1-42 channels” value in assay [1] is listed as “blocked”.
Regarding `[Zn+2]` [Zn^2+], the “block of AbP1-40 channels and inhibition of 45Ca2+ uptake into the liposomes” value in assay [2] is given as “blocks the channels”. Also, the “block of AbP1-42 channels” value in assay [1] was “blocked”. For the same molecule, in the assay with AbP ion channels [3], the “effect on AbP-induced toxicity” value is recorded as “inhibited AbP-induced toxicity”. The “block of Ca2+ influx mediated by AbP ion channels” value with AbP ion channels [4] is recorded as “blocked”.
For the molecule Gramicidin, the “conductance after addition of Gramicidin” value in assay [5] (10 seconds after addition) was 0.25 nS; in assay [5] (2 minutes after addition) it was 0.5 nS; in assay [5] (4 minutes after addition), 1 nS; in assay [5] (4 minutes after addition, listed as gramicidin), “roughly 1 nS”.
In the case of NAC: NAC (α-synuclein 60-95), the “induction of single-channel ion currents / conductances” value in assay [6] was “Current jumps corresponding to the opening or closing of individual ion channels can be observed”.
In the case of amyloid-β(1-40) [Aβ(1-40)], the “induction of single-channel ion currents / conductances” value in assay [6] is reported as “Current jumps corresponding to the opening or closing of individual ion channels can be observed”.
Consider “islet amyloid polypeptide (KCNTATCATQRLANFLVHSSNNFGAILSSTNVGSNTY; not fully specified (C-terminus, bridges); cysteine pairing not given here; UniProt P10997 34-70, looked up) [Amylin, amyloid peptide synthesized by N-t-butyloxycarbonyl chemistry]”, for which, in assay [6], the “induction of single-channel ion currents / conductances” value is “Current jumps corresponding to the opening or closing of individual ion channels can be observed”.
